Experiment [1] has as its target 5-hydroxytryptamine receptor 2A (Homo sapiens, UniProt P28223).
Description: Displacement of (+/-)-[125I]DOI from human cloned 5HT2A receptor
In experiment [2] the target is T1, 5-hydroxytryptamine receptor 2A (Rattus norvegicus, UniProt P14842).
Description: Displacement of (+/-)-[125I]DOI from rat cloned 5HT2A receptor
The target in experiment [3] is T1, 5-hydroxytryptamine receptor 2A. In words: Activity at rat 5HT2A receptor expressed in NIH3T3 cells assessed as stimulation of phospholipase C-mediated IP production. It counts as functional, cell-based.

T1 sequence (P14842 whole entry): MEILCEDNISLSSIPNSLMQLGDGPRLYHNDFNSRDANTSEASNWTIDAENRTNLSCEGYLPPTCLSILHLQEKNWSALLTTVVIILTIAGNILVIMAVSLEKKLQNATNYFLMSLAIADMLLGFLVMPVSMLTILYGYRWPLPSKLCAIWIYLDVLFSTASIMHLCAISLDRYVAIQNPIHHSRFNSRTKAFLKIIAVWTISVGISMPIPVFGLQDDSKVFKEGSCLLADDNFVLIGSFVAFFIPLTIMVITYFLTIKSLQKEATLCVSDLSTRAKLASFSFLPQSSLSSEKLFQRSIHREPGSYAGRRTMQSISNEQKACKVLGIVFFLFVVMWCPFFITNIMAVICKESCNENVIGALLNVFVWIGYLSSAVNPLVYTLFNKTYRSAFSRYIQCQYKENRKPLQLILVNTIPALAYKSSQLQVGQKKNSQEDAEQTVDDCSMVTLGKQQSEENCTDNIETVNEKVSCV
Sequence of 5-hydroxytryptamine receptor 2A (Homo sapiens, UniProt P28223) (P28223 whole entry): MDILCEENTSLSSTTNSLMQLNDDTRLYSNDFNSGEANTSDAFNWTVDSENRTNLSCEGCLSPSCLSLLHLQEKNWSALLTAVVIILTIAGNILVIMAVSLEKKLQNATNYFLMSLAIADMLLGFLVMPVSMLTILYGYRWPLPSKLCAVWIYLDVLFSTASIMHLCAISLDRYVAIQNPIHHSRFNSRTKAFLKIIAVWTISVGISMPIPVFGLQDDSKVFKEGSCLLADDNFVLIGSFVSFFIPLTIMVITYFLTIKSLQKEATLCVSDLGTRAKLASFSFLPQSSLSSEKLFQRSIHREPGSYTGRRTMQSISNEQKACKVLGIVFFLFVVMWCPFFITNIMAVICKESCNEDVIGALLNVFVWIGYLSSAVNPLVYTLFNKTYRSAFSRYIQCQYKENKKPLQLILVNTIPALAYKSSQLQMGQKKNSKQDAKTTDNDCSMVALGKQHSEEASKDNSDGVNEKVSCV

On to `COc1cc(Br)c(OC)c2c1C(CN)CC2` (racemic), for which the Ki – broadly, the equilibrium dissociation constant of an inhibitor or competing ligand from its target – in experiment [1] was determined as 53 nM; in experiment [2], 47 nM.

For the compound `COc1cc(Br)c2c3c1[C@H](CN)CCC[C@@H]3CO2` (racemic), the figures for the Ki in experiment [1] and in experiment [2] were 200 nM and 170 nM, respectively.

Take `COc1cc(Br)c2c3c1[C@@H](CN)CCC[C@@H]3CO2` (racemic): the Ki is 170 nM in experiment [1] and 74 nM in experiment [2].

In the case of `COc1cc(CCN)c(OC)cc1Br`, the Ki in experiment [1] turned out to be 0.66 nM; in experiment [2], 0.88 nM. The EC50 (usually the concentration at which the effect is half-maximal) in experiment [3] was found to be 27 nM.

For the origin of these results see ChEMBL document CHEMBL1149368, “1-Aminomethylbenzocycloalkanes: conformationally restricted hallucinogenic phenethylamine analogues as functionally selective 5-HT2A receptor agonists” (J Med Chem, 2006).
